Results as given in US20250115598A1 (Anaxis Pharma Pty Ltd, priority 2021, published 2025).

Experiments:
human MLKL (full length) = human MLKL (full length) (Homo sapiens (Human), UniProt Q8NB16); test: KINOMEscan binding assay, human MLKL (full length); details: KINOMEscan, Table 21; read-out: Human MLKL (full-length) (KD)
How it was run: (§1)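 Competition binding format with qPCR detection. Kinases, either phage-fused from E. coli lysates or HEK-293-derived with a DNA tag, bound ligand-coated beads in the presence of compound (11 points, 3-fold steps, 1% DMSO, top usually 30,000 nM). Kd from nonlinear Hill fitting with slope −1.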

human RIPK1 = human RIPK1 (Homo sapiens (Human), UniProt Q13546); test: KINOMEscan binding assay, human RIPK1; details: Table 21
How it was run: as §1

human RIPK3 = human RIPK3 (Homo sapiens (Human), UniProt Q9Y572); test: KINOMEscan binding assay, human RIPK3; details: Table 21
How it was run: as §1

human RIPK1, sequence (Q13546 whole entry): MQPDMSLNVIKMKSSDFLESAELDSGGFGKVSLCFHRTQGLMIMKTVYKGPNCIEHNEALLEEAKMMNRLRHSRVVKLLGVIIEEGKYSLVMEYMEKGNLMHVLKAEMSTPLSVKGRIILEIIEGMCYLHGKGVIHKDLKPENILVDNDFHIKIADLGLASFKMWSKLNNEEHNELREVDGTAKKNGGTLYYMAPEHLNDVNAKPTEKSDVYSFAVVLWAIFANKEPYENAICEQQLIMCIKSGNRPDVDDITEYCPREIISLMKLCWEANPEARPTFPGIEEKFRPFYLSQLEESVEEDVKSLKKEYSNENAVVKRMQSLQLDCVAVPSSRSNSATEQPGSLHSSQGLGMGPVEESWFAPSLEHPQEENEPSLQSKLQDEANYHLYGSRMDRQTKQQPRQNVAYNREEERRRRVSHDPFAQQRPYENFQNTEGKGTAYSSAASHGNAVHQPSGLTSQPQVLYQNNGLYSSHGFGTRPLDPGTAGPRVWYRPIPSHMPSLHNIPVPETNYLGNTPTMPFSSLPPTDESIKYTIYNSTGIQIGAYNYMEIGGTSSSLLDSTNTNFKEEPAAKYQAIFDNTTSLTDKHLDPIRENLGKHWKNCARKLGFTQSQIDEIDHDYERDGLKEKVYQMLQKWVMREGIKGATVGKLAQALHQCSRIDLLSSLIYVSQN
human RIPK3, sequence (Q9Y572 whole entry): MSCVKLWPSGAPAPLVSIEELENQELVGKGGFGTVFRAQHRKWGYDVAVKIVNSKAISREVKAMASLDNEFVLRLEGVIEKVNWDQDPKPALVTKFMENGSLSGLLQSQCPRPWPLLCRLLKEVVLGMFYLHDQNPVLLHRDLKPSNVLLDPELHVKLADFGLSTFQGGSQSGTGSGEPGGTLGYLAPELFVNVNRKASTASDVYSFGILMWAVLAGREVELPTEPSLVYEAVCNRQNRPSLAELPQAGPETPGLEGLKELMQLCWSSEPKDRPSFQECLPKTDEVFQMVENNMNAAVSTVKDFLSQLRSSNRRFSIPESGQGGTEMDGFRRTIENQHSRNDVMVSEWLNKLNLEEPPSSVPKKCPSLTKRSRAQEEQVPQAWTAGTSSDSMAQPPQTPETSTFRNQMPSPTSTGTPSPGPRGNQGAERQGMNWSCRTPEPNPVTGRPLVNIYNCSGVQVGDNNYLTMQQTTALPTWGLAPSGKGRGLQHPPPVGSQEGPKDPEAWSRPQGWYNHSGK
human MLKL (full length), sequence (Q8NB16 whole entry, the tested form may be a part): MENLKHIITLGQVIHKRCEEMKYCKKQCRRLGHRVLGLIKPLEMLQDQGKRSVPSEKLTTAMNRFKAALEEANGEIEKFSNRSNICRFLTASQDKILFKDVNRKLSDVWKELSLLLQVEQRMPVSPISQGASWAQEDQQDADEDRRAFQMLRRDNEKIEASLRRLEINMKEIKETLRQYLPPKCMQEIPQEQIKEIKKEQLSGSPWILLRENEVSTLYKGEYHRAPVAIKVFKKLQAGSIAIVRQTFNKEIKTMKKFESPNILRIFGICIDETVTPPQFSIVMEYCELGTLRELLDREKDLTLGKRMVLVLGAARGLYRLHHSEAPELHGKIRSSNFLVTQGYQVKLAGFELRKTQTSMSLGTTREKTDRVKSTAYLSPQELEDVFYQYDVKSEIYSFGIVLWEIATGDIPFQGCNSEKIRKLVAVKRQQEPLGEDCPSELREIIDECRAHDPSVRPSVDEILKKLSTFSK

Kd (human MLKL (full length)) [µM] | Kd (human RIPK1) [µM] | Kd (human RIPK3) [µM] | Compound
< 0.001 | > 10 | > 10 | CC#Cc1cnc(N)c2c(-c3ccc(NS(=O)(=O)C(F)F)c(O[C@@H](C)c4ccc(F)cc4)c3)nn(C)c12 [Compound 56, (S)-N-(4-(4-amino-1-methyl-7-(prop-1-yn-1-yl)-1H-pyrazolo[4,3-c]pyridin-3-yl)-2-(1-(4-fluorophenyl)ethoxy)phenyl)-1,1-difluoromethane-sulfonamide]
< 0.001 | > 10 | > 10 | C[C@H](Oc1cc(-c2nn(C)c3c(C#CC4CCOCC4)cnc(N)c23)ccc1NS(=O)(=O)C(F)F)c1ccc(F)cc1 [Compound 58, (S)-N-(4-(4-amino-1-methyl-7-((tetrahydro-2H-pyran-4-yl)ethynyl)-1H-pyrazolo[4,3-c]pyridin-3-yl)-2-(1-(4-fluorophenyl)ethoxy)phenyl)-1,1-difluoromethane-sulfonamide]
< 0.001 | > 10 | > 10 | C[C@H](Oc1cc(-c2nn(C)c3c(-c4cnn(C5CCNCC5)c4)cnc(N)c23)ccc1NS(=O)(=O)C(F)F)c1ccc(F)cc1 [Compound 59, N-(4-{4-amino-1-methyl-7-[1-(piperidin-4-yl)-1H-pyrazol-4-yl]-1H-pyrazolo[4,3-c]pyridin-3-yl}-2-[(1 S)-1-(4-fluorophenyl)ethoxy]phenyl)-1,1-difluoromethanesulfonamide]
< 0.001 | > 10 | > 10 | Nc1n[nH]c2nccc(-c3ccc(NS(=O)(=O)C(F)F)c(OCc4ccc(F)cc4)c3)c12 [Compound 66, N-(4-(3-Amino-1H-pyrazolo[3,4-b]pyridin-4-yl)-2-((4-fluorophenyl)methoxy)phenyl)-1,1-difluoromethanesulfonamide]
< 0.001 | > 10 | > 10 | Nc1n[nH]c2nccc(-c3ccc(NS(=O)(=O)CC(F)(F)F)c(OCc4ccc(F)cc4)c3)c12 [Compound 67, N-(4-(3-Amino-1H-pyrazolo[3,4-b]pyridin-4-yl)-2-((4-fluorophenyl)methoxy)phenyl)-2,2,2-trifluoroethane-1-sulfonamide]
< 0.001 | > 10 | > 10 | Nc1n[nH]c2ncnc(-c3ccc(NS(=O)(=O)C(F)F)c(OCc4ccc(F)cc4)c3)c12 [Compound 69, N-(4-(3-Amino-1H-pyrazolo[3,4-d]pyrimidin-4-yl)-2-((4-fluorophenyl)methoxy)phenyl)-1,1-difluoromethanesulfonamide]
< 0.001 | > 10 | > 10 | Cc1cc(-c2ccc(NS(=O)(=O)C(F)F)c(OCc3ccc(F)cc3)c2)c2c(N)n[nH]c2n1 [Compound 70, N-(4-(3-Amino-6-methyl-1H-pyrazolo[3,4-b]pyridin-4-yl)-2-((4-fluorophenyl)methoxy)phenyl)-1,1-difluoromethanesulfonamide]
< 0.001 | > 10 | > 10 | C[C@H](Oc1cc(-c2ccnc3[nH]nc(N)c23)ccc1NS(=O)(=O)C(F)F)c1ccc(F)cc1 [Compound 72, N-(4-(3-Amino-1H-pyrazolo[3,4-b]pyridin-4-yl)-2-((1 S)-1-(4-fluorophenyl)ethoxy)phenyl)-1,1-difluoromethanesulfonamide]
< 0.001 | > 10 | > 10 | C[C@H](Oc1cc(-c2nn(C)c3c(-c4cnn(CCN5CC(C)(C)C5)c4)cnc(N)c23)ccc1NS(=O)(=O)C(F)F)c1ccc(F)cc1 [Compound 75, (S)-N-(4-(4-amino-7-(1-(2-(3,3-dimethylazetidin-1-yl)ethyl)-1H-pyrazol-4-yl)-1-methyl-1H-pyrazolo[4,3-c]pyridin-3-yl)-2-(1-(4-fluorophenyl)ethoxy)phenyl)-1,1-difluoromethanesulfonamide]
< 0.001 | > 10 | > 10 | CC(C)N1CC(n2cc(-c3cnc(N)c4c(-c5ccc(NS(=O)(=O)C(F)F)c(O[C@@H](C)c6ccc(F)cc6)c5)nn(C)c34)cn2)C1 [Compound 76, (S)-N-(4-(4-amino-7-(1-(1-isopropylazetidin-3-yl)-1H-pyrazol-4-yl)-1-methyl-1H-pyrazolo[4,3-c]pyridin-3-yl)-2-(1-(4-fluorophenyl)ethoxy)phenyl)-1,1-difluoromethanesulfonamide]
< 0.001 | > 10 | > 10 | C[C@H](Oc1cc(-c2nn(C)c3c(-c4cnn(C5CN(CC(F)(F)F)C5)c4)cnc(N)c23)ccc1NS(=O)(=O)C(F)F)c1ccc(F)cc1 [Compound 77, (S)-N-(4-(4-amino-1-methyl-7-(1-(1-(2,2,2-trifluoroethyl)azetidin-3-yl)-1H-pyrazol-4-yl)-1H-pyrazolo[4,3-c]pyridin-3-yl)-2-(1-(4-fluorophenyl)ethoxy)phenyl)-1,1-difluoromethanesulfonamide]
< 0.001 | > 10 | > 10 | C[C@H](Oc1cc(-c2nn(C)c3c(-c4cnn(C5CC6(CNC6)C5)c4)cnc(N)c23)ccc1NS(=O)(=O)C(F)F)c1ccc(F)cc1 [Compound 78, (S)-N-(4-(7-(1-(2-azaspiro[3.3]heptan-6-yl)-1H-pyrazol-4-yl)-4-amino-1-methyl-1H-pyrazolo[4,3-c]pyridin-3-yl)-2-(1-(4-fluorophenyl)ethoxy)phenyl)-1,1-difluoromethane-sulfonamide]
< 0.001 | > 10 | > 10 | C[C@H](Oc1cc(-c2nn(C)c3c(C#CC4CCNCC4)cnc(N)c23)ccc1NS(=O)(=O)C(F)F)c1ccc(F)cc1 [Compound 79, (S)—N-(4-(4-amino-1-methyl-7-(piperidin-4-ylethynyl)-1H-pyrazolo[4,3-c]pyridin-3-yl)-2-(1-(4-fluorophenyl)ethoxy)phenyl)-1,1-difluoromethanesulfonamide]
< 0.001 | > 10 | > 10 | CC(C)N(C)C(=O)C(C)n1cc(-c2cnc(N)c3c(-c4ccc(NS(=O)(=O)C(F)F)c(O[C@@H](C)c5ccc(F)cc5)c4)nn(C)c23)cn1 (stereo partly drawn) [Compound 81, 2-(4-(4-amino-3-(4-((difluoromethyl)sulfonamido)-3-((S)-1-(4-fluorophenyl)ethoxy)phenyl)-1-methyl-1H-pyrazolo[4,3-c]pyridin-7-yl)-1H-pyrazol-1-yl)-N-isopropyl-N-methylpropanamide]
< 0.001 | > 10 | > 10 | CNCCn1cc(-c2cnc(N)c3c(-c4ccc(NS(=O)(=O)C(F)F)c(O[C@@H](C)c5ccc(F)cc5)c4)nn(C)c23)cn1 [Compound 82, (S)-N-(4-(4-amino-1-methyl-7-(1-(2-(methylamino)ethyl)-1H-pyrazol-4-yl)-1H-pyrazolo[4,3-c]pyridin-3-yl)-2-(1-(4-fluorophenyl)ethoxy)phenyl)-1,1-difluoromethanesulfonamide]
< 0.001 | > 10 | > 10 | C[C@H](Oc1cc(-c2nn(C)c3c(-c4cnn(C5(CN)CC5)c4)cnc(N)c23)ccc1NS(=O)(=O)C(F)F)c1ccc(F)cc1 [Compound 89, (S)—N-(4-(4-amino-7-(1-(1-(aminomethyl)cyclopropyl)-1H-pyrazol-4-yl)-1-methyl-1H-pyrazolo[4,3-c]pyridin-3-yl)-2-(1-(4-fluorophenyl)ethoxy)phenyl)-1,1-difluoromethanesulfonamide]
< 0.001 | > 10 | > 10 | C[C@H](Oc1cc(-c2nn(C)c3c(-c4cnn(C5CN(C)C5)c4)cnc(N)c23)ccc1NS(=O)(=O)C(F)F)c1ccc(F)cc1 [Compound 92, (S)-N-(4-(4-amino-1-methyl-7-(1-(1-methylazetidin-3-yl)-1H-pyrazol-4-yl)-1H-pyrazolo[4,3-c]pyridin-3-yl)-2-(1-(4-fluorophenyl)ethoxy)phenyl)-1,1-difluoromethanesulfonamide]
< 0.001 | > 10 | > 10 | C[C@H](Oc1cc(-c2nn(C)c3c(-c4cnn(C5CCN(C)C5)c4)cnc(N)c23)ccc1NS(=O)(=O)C(F)F)c1ccc(F)cc1 (stereo partly drawn) [Compound 93, N-(4-(4-amino-1-methyl-7-(1-(1-methylpyrrolidin-3-yl)-1H-pyrazol-4-yl)-1H-pyrazolo[4,3-c]pyridin-3-yl)-2-((S)-1-(4-fluorophenyl)ethoxy)phenyl)-1,1-difluoromethanesulfonamide]
< 0.001 | > 10 | > 10 | C[C@H](Oc1cc(-c2nn(C)c3c(-c4cnn(C5CNC5)c4)cnc(N)c23)ccc1NS(=O)(=O)C(F)F)c1ccc(F)cc1 [Compound 94, (S)-N-(4-(4-amino-7-(1-(azetidin-3-yl)-1H-pyrazol-4-yl)-1-methyl-1H-pyrazolo[4,3-c]pyridin-3-yl)-2-(1-(4-fluorophenyl)ethoxy)phenyl)-1,1-difluoromethane-sulfonamide]
< 0.001 | > 10 | > 10 | C[C@H](Oc1cc(-c2nn(C)c3c(-c4cnn(C5(C#N)CC5)c4)cnc(N)c23)ccc1NS(=O)(=O)C(F)F)c1ccc(F)cc1 [Compound 96, N-(4-{4-amino-7-[1-(1-cyanocyclopropyl)-1H-pyrazol-4-yl]-1-methyl-1H-pyrazolo[4,3-c]pyridin-3-yl}-2-[(1S)-1-(4-fluorophenyl)ethoxy]phenyl)-1,1-difluoromethanesulfonamide]

Compound | Kd (human MLKL (full length)) [µM] | Kd (human RIPK1) [µM] | Kd (human RIPK3) [µM]
C[C@H](Oc1cc(-c2nn(C)c3c(-c4cnn(C5CC6CCC(C5)N6C)c4)cnc(N)c23)ccc1NS(=O)(=O)C(F)F)c1ccc(F)cc1 (stereo partly drawn) [Compound 73, N-(4-(4-amino-1-methyl-7-(1-(8-methyl-8-azabicyclo[3.2.1]octan-3-yl)-1H-pyrazol-4-yl)-1H-pyrazolo[4,3-c]pyridin-3-yl)-2-((S)-1-(4-fluorophenyl)ethoxy)phenyl)-1,1-difluoromethanesulfonamide] | < 0.001 | > 10 | > 10
